Data reported in ChEMBL document CHEMBL5346972, “Discovery of HDAC6, HDAC8, and 6/8 Inhibitors and Development of Cell-Based Drug Screening Models for the Treatment of TGF-β-Induced Idiopathic Pulmonary Fibrosis” (J Med Chem, 2023).

Experiments:
NIH3T3 [1] = experiment: Antiproliferative activity against mouse NIH3T3 cells assessed as reduction in cell viability by measuring optimal working concentration incubated for 3 days by CCK-8 assay relative to control; format: functional; conditions: time 3 day
NIH3T3 [2] = experiment: Antiproliferative activity against mouse NIH3T3 cells assessed as reduction in cell viability incubated for 3 days by CCK-8 assay; format: functional, cell-based; conditions: NIH3T3, 72 h
in vitro [3] = conditions: human, microsomes
Histone deacetylase 9 = Histone deacetylase 9 (Homo sapiens, UniProt Q9UKV0); experiment: Inhibition of human HDAC9 expressed in baculovirus expression system in Sf9 cells using Boc-Lys(trifluoroacetyl)-AMC fluorogenic peptide as substrate and measured after 2 hrs by fluorescence based analysis
Histone deacetylase 11 = molecular target: T1, Histone deacetylase 11 (Homo sapiens, UniProt Q96DB2); experiment: Inhibition of human HDAC11 expressed in baculovirus expression system in Sf9 cells using Boc-Lys(trifluoroacetyl)-AMC fluorogenic peptide as substrate and measured after 2 hrs by fluorescence based analysis
T1 sequence (Q96DB2 whole entry): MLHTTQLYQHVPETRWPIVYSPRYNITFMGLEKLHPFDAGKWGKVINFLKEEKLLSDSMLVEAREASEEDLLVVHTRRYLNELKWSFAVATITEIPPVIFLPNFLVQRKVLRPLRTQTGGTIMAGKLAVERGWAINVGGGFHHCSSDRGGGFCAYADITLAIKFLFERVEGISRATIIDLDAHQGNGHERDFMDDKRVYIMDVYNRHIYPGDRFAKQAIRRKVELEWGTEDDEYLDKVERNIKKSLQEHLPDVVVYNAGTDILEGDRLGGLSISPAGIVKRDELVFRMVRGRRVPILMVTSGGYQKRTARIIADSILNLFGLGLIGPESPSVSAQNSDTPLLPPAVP

[4] = Antiproliferative activity against human Pulmonary fibroblast cells assessed as reduction in cell viability incubated for 3 days by CCK-8 assay; format: functional, cell-based; conditions: 72 h
Histone deacetylase 4 = Histone deacetylase 4 (Homo sapiens, UniProt P56524); experiment: Inhibition of human HDAC4 expressed in baculovirus expression system in Sf9 cells using Boc-Lys(trifluoroacetyl)-AMC fluorogenic peptide as substrate and measured after 2 hrs by fluorescence based analysis
Histone deacetylase 8 = molecular target: T2, Histone deacetylase 8 (Homo sapiens, UniProt Q9BY41); experiment: Inhibition of human HDAC8 expressed in baculovirus expression system in Sf9 cells using RHKAcKAc (379 to 382 residues) fluorogenic peptide as substrate and measured after 2 hrs by fluorescence based analysis
T2 sequence (Q9BY41 whole entry): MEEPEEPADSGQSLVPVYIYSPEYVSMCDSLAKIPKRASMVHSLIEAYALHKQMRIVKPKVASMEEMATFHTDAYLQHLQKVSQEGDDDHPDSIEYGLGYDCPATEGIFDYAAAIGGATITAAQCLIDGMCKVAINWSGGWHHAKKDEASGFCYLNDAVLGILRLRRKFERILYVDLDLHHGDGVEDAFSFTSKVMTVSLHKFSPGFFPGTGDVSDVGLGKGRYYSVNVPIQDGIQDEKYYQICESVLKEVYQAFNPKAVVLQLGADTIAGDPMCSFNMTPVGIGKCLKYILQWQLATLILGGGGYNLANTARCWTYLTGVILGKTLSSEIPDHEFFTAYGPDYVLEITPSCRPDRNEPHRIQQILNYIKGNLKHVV

[5] = Antiproliferative activity against human Pulmonary fibroblast cells assessed as reduction in cell viability by measuring optimal working concentration incubated for 3 days by CCK-8 assay; format: functional; conditions: time 3 day
Histone deacetylase 3 = Histone deacetylase 3 (Homo sapiens, UniProt O15379); experiment: Inhibition of human HDAC3 expressed in baculovirus expression system in Sf9 cells using RHKKAc (379 to 382 residues) fluorogenic peptide as substrate and measured after 2 hrs by fluorescence based analysis
[6] = molecular target: T3, Protein deacetylase HDAC6 (Homo sapiens, UniProt Q9UBN7); experiment: Inhibition of human HDAC6 expressed in baculovirus expression system in Sf9 cells using RHKKAc (379 to 382 residues) fluorogenic peptide as substrate and measured after 2 hrs by fluorescence based analysis
T3 sequence (Q9UBN7 whole entry): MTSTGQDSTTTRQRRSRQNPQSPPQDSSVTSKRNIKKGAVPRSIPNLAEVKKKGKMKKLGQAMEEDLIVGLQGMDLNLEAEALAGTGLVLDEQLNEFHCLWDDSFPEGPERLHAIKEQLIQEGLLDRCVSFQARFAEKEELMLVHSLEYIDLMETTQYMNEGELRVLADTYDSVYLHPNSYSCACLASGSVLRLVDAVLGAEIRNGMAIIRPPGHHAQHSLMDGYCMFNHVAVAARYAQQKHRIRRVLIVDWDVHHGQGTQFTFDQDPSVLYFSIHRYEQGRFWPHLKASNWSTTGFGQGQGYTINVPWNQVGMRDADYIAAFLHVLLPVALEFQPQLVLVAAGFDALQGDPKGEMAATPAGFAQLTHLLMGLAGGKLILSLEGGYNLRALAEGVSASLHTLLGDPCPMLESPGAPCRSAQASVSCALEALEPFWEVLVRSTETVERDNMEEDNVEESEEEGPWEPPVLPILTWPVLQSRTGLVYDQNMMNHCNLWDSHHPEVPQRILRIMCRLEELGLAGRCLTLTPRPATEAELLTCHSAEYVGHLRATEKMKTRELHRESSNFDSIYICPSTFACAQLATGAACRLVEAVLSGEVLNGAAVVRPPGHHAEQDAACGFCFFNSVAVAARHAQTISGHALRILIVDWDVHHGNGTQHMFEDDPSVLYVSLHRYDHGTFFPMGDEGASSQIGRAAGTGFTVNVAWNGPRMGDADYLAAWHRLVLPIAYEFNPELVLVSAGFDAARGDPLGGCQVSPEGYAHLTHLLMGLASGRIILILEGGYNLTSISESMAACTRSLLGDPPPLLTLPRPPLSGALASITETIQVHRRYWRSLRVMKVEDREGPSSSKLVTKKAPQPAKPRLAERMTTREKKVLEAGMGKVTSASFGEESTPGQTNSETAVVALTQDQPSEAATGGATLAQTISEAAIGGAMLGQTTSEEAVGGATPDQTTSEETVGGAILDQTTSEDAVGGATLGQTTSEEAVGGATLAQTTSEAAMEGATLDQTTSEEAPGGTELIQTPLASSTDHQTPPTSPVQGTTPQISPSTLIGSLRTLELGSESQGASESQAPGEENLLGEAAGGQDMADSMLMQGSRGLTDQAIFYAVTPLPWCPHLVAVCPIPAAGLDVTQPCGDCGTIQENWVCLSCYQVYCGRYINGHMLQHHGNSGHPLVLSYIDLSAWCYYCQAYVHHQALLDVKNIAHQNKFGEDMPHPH

in vitro [7] = conditions: human, microsomes; remark: listed apart in the source
Histone deacetylase 2 = Histone deacetylase 2 (Homo sapiens, UniProt Q92769); experiment: Inhibition of human HDAC2 expressed in baculovirus expression system in Sf9 cells using RHKKAc (379 to 382 residues) fluorogenic peptide as substrate and measured after 2 hrs by fluorescence based analysis
Histone deacetylase 5 = Histone deacetylase 5 (Homo sapiens, UniProt Q9UQL6); experiment: Inhibition of human HDAC5 expressed in baculovirus expression system in Sf9 cells using Boc-Lys(trifluoroacetyl)-AMC fluorogenic peptide as substrate and measured after 2 hrs by fluorescence based analysis
[8] = Metabolic stability in human liver microsomes assessed as parent compound remaining at 200 uM preincubated for 5 mins followed by NADPH and measured at 60 mins by LC-MS/MS analysis; conditions: microsomes
Histone deacetylase 1 = Histone deacetylase 1 (Homo sapiens, UniProt Q13547); experiment: Inhibition of human HDAC1 expressed in baculovirus expression system in Sf9 cells using RHKKAc (379 to 382 residues) fluorogenic peptide as substrate and measured after 2 hrs by fluorescence based analysis
Chain of Histone deacetylase 1 (Q13547 whole entry, the tested form may be a part): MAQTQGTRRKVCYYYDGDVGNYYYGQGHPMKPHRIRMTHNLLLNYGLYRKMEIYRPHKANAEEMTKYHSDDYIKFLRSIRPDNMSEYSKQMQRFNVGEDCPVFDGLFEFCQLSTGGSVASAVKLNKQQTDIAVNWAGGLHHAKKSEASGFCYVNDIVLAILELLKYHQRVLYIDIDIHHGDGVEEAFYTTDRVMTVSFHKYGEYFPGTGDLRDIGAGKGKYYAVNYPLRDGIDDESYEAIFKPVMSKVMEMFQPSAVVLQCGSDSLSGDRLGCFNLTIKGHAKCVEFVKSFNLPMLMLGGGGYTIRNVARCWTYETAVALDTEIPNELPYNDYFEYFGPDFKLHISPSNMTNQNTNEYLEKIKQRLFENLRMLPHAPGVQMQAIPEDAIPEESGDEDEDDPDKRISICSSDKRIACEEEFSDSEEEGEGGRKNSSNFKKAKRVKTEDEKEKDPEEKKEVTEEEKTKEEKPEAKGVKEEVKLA

Chain of Histone deacetylase 4 (P56524 whole entry, the tested form may be a part): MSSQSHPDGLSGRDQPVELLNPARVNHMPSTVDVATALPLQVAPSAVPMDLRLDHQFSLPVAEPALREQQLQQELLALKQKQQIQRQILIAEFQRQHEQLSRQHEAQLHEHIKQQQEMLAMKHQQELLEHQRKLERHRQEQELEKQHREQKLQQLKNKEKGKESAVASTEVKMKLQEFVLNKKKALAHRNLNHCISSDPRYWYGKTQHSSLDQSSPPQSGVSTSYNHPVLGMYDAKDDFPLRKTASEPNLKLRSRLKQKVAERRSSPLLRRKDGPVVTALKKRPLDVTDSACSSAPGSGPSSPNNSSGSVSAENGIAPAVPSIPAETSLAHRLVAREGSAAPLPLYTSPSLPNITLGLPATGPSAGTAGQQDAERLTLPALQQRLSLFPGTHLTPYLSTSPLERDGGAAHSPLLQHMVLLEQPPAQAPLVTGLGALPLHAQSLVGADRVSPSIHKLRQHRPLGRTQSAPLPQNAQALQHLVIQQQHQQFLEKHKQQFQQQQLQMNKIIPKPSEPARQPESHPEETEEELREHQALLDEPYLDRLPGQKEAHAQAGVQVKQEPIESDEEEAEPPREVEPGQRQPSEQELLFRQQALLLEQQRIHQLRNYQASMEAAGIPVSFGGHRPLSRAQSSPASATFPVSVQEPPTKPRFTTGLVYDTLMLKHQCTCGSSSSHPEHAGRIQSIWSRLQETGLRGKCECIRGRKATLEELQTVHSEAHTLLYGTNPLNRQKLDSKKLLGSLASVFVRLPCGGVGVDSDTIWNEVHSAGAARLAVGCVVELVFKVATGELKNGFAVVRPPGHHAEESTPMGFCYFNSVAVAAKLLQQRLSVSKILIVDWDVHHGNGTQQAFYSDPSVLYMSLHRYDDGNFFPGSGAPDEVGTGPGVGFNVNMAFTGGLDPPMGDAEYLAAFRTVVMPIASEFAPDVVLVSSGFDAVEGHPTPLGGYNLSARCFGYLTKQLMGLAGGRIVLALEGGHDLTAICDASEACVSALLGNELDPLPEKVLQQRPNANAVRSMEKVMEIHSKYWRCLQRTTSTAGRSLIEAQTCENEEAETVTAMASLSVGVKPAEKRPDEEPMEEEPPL
Chain of Histone deacetylase 2 (Q92769 whole entry, the tested form may be a part): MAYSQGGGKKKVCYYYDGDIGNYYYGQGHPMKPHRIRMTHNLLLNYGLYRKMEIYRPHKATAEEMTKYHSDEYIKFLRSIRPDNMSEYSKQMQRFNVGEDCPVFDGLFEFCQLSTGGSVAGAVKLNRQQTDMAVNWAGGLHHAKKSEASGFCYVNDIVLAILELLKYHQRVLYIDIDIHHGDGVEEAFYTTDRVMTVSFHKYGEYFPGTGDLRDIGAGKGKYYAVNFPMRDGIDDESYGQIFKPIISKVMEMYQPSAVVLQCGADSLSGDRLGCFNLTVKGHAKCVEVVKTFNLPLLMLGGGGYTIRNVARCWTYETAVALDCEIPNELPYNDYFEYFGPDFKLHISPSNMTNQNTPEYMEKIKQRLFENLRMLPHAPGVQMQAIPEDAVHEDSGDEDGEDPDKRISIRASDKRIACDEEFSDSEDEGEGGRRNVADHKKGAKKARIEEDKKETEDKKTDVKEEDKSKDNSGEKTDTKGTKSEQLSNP
Chain of Histone deacetylase 5 (Q9UQL6 whole entry): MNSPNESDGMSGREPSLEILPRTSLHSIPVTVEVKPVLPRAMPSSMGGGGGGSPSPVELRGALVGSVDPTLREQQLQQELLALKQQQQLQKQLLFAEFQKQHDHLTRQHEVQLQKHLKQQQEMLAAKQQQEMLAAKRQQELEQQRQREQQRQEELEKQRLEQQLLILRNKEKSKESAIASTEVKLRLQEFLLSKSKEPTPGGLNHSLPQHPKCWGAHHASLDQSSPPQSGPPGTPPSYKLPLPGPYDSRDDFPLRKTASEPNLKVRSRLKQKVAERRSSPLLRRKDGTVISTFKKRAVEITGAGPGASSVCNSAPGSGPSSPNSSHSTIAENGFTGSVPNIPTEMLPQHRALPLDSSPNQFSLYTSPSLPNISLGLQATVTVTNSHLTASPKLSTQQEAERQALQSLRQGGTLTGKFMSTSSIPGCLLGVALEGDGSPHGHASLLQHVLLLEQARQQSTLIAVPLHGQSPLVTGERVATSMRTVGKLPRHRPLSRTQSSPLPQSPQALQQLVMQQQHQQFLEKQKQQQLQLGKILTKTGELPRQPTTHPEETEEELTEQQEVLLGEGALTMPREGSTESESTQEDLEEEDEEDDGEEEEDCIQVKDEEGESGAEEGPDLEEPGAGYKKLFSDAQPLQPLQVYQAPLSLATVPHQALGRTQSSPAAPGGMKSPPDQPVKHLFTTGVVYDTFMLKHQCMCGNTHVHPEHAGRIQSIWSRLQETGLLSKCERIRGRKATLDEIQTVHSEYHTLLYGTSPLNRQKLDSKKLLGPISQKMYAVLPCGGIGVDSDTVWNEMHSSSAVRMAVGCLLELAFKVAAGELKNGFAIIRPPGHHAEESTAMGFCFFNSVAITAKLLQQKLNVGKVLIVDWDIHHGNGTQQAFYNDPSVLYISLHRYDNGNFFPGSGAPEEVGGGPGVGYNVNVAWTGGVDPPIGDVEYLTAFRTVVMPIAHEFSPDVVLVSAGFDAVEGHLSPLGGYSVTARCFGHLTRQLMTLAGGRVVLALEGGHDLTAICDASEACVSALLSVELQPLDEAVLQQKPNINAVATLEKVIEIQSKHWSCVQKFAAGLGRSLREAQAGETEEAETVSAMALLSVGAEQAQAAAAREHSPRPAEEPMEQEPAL
Chain of Histone deacetylase 9 (Q9UKV0 whole entry): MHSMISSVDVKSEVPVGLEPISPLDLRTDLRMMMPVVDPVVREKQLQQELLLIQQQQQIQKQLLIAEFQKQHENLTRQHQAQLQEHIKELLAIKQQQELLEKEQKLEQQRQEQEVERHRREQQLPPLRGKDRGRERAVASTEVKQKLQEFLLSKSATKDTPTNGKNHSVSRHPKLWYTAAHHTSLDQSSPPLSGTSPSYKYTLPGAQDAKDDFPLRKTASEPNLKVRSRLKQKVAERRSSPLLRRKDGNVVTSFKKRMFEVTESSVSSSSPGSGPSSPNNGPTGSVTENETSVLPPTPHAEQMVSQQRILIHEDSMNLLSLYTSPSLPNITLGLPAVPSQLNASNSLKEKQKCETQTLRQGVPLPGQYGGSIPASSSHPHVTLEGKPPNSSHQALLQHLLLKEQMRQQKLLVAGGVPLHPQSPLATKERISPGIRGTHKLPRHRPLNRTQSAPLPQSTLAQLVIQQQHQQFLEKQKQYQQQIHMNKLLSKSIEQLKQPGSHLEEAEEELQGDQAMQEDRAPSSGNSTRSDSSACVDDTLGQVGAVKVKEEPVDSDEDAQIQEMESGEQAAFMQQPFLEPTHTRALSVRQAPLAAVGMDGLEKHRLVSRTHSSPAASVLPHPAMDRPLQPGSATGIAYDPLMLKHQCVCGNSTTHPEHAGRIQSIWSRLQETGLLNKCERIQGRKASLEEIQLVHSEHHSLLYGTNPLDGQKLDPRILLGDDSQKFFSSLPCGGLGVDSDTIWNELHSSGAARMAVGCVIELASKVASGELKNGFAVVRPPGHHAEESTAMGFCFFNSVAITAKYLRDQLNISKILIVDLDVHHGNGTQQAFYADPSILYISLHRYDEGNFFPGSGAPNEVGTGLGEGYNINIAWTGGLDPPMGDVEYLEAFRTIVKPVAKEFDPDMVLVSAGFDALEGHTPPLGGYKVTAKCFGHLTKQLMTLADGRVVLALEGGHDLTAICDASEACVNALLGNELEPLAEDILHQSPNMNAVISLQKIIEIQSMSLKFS
Chain of Histone deacetylase 3 (O15379 whole entry, the tested form may be a part): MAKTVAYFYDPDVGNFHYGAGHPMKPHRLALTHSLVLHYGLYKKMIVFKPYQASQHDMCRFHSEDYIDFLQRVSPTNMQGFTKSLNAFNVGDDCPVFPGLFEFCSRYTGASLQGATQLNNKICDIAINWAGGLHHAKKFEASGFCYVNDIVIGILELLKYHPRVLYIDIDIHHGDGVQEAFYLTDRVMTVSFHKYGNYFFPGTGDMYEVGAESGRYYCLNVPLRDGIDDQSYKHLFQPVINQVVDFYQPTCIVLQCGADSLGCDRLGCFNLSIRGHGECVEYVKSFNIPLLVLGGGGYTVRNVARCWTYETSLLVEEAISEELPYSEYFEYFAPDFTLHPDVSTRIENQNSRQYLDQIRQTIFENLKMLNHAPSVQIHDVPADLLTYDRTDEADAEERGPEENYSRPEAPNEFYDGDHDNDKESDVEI

SMILES	MEC (NIH3T3 [1]) [µM]	IC50 (NIH3T3 [2]) [µM]	IC50 (Histone deacetylase 8) [µM]	IC50 [6] [µM]	IC50 (Histone deacetylase 1) [µM]	other results
CCc1nc2c(Cc3ccc(C(=O)NO)cc3)cccc2c(=O)n1CCc1ccccc1	0.4	338	–	–	–	–
Cc1nc2cc(/C=C/C(=O)NO)ccc2c(=O)n1-c1ccccc1	20	> 40	1.55	0.062	–	half-life at 1 h, 200 µM (in vitro [3]): > 3.11 h; IC50 (Histone deacetylase 9): 30 µM; IC50 (Histone deacetylase 11): 4.7 µM; IC50 [4]: > 40 µM; IC50 (Histone deacetylase 4): 30 µM; MEC [5]: 10 µM; IC50 (Histone deacetylase 3): 1.59 µM; CLint scaled at 1 h, 200 µM (in vitro [7]): < 6.1 mL/min/kg; IC50 (Histone deacetylase 2): 7.38 µM; IC50 (Histone deacetylase 5): 8.41 µM; remaining at 1 h, 200 µM [8]: 89.6%
O=C(NO)c1ccc(Cn2c(=O)n(CCc3ccccc3)c(=O)c3cc(Cl)ccc32)cc1	0.81	3.79	–	–	–	–
O=C(NO)c1ccc(Cn2c(=O)n(CCc3ccccc3)c(=O)c3ccc(C(F)(F)F)cc32)cc1	1.24	4.23	–	–	–	–
O=C(NO)c1ccc(Cn2c(=O)n(CCc3ccccc3)c(=O)c3ccccc32)cc1	2.88	5.1	–	–	> 10	–
COc1ccccc1CCn1c(=O)c2ccccc2n(Cc2ccc(C(=O)NO)cc2)c1=O	–	9.55	–	–	–	–
O=C(NO)c1ccc(Cn2c(=O)[nH]c(=O)c3cc(Br)ccc32)cc1	6.05	757	0.371	0.018	4.28	–
O=C(NO)c1ccc(Cn2c(=O)n(CCc3ccccc3O)c(=O)c3ccccc32)cc1	4.94	9.95	–	–	–	–
O=C(NO)c1ccc(Cn2c(=O)[nH]c(=O)c3ccc(C(F)(F)F)cc32)cc1	4.72	16	0.302	0.058	5.18	–
O=C(CCn1c(=O)n(CCc2ccccc2)c(=O)c2ccccc21)NO	1.14	7.14	0.454	0.798	> 10	–
O=C(NO)c1ccc(Cn2c(=O)[nH]c(=O)c3ccc(F)cc32)cc1	2.7	15.3	0.154	0.0016	0.423	–
O=C(NO)c1ccc(Cn2c(=O)[nH]c(=O)c3cc(F)ccc32)cc1	–	4.76	0.222	0.006	1.27	–
